Starred links: 1 amine or outer side, 2 acyl side, 3 side chain; linkers in the order of their positions; H or OH if unused. Positions of bridges follow the written chain, without caps; N, C: chain ends. Non-standard residues stand in square brackets, D forms with d. Residues, ends and D or L forms follow the SMILES beside them. Trimesoyl = O=C(c1cc(C(=O)[*:2])cc(C(=O)[*:3])c1)[*:1]; F2Pmp = N[C@@H](Cc1ccc(C(F)(F)P(=O)(O)O)cc1)C(=O)O; d(pT) = C[C@H](OP(=O)(O)O)[C@@H](N)C(=O)O; 2Nal = N[C@@H](Cc1ccc2ccccc2c1)C(=O)O; Pip = O=C(O)[C@@H]1CCCCN1; Dap = NC[C@H](N)C(=O)O; Sar = CNCC(=O)O
Legend:
HePTP = HePTP (Homo sapiens, UniProt P35236); test: PTP inhibition assay (pNPP); format: biochemical; conditions: 1 μM inhibitor
Chain of HePTP (P35236 whole entry, species assumed): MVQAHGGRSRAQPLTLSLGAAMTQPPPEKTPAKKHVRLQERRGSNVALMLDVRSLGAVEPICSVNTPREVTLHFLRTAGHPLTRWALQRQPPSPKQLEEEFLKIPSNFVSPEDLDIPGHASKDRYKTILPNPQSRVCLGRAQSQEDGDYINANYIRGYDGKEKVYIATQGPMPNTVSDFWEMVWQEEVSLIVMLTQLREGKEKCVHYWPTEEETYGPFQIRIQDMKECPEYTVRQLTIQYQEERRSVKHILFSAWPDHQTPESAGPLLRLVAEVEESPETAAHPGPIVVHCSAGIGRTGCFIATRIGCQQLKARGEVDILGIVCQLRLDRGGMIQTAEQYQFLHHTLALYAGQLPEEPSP
Procedure: (§1) PTP assays were performed in a quartz microcuvette (total volume 150 μL). The reaction mixture contains 100 mM Tris-HCl, pH 7.4, 50 mM NaCl, 2 mM EDTA, 1 mM TCEP, 0-1 μM of PTP inhibitor, and 500 μM para-nitrophenyl phosphate (pNPP). The enzymatic reaction was initiated by the addition of PTP (final concentration 15-75 nM) and monitored continuously at 405 nm on a UV-VIS spectrophotometer. Initial rates were calculated from the reaction progress curves (typically <60 s). The half-maximal inhibition constant (IC50) was defined as the concentration of an inhibitor that reduced the enzyme activity to 50% and was obtained by plotting the rates (V) against the inhibitor concentration [I] and fitting the data against the equation

PTPRO = PTPRO (Homo sapiens, UniProt Q16827); test: PTP inhibition assay (pNPP); format: biochemical; conditions: 1 μM inhibitor
Chain of PTPRO (Q16827 30-1216): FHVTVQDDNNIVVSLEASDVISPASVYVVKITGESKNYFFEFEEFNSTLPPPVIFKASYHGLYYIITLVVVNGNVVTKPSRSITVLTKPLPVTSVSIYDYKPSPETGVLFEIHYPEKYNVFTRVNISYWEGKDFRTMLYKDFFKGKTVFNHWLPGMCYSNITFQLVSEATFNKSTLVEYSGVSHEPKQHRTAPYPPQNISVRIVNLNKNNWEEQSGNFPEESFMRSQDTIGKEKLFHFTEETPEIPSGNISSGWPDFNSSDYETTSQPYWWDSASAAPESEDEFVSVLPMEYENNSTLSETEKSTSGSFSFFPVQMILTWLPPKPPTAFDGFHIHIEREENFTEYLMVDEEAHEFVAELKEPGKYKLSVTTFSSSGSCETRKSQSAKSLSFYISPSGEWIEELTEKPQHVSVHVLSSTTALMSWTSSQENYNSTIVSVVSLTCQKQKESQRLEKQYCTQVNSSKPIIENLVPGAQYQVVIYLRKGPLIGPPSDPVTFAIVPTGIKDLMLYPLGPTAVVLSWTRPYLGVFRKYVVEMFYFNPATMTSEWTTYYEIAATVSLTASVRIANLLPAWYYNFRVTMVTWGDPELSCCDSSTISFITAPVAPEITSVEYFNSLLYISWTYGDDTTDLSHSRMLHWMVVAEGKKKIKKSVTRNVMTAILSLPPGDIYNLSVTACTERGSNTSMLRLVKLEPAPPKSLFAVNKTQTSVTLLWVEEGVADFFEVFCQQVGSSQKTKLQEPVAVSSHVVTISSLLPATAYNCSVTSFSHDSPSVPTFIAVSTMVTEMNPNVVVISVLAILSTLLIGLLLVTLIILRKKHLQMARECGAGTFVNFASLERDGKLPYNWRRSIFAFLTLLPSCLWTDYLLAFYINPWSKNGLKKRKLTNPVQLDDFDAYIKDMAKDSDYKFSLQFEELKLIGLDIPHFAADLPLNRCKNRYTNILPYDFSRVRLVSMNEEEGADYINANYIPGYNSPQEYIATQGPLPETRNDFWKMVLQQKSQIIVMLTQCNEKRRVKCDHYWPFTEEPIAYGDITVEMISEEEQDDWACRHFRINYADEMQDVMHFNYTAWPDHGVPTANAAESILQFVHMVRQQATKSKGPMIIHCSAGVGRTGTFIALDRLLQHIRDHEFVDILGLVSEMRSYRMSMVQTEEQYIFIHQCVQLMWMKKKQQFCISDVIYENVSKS
Procedure: as §1

PTPRC = PTPRC (Homo sapiens, UniProt P08575); test: PTP inhibition assay (pNPP); format: biochemical; conditions: 1 μM inhibitor
Chain of PTPRC (P08575 26-1306, species assumed): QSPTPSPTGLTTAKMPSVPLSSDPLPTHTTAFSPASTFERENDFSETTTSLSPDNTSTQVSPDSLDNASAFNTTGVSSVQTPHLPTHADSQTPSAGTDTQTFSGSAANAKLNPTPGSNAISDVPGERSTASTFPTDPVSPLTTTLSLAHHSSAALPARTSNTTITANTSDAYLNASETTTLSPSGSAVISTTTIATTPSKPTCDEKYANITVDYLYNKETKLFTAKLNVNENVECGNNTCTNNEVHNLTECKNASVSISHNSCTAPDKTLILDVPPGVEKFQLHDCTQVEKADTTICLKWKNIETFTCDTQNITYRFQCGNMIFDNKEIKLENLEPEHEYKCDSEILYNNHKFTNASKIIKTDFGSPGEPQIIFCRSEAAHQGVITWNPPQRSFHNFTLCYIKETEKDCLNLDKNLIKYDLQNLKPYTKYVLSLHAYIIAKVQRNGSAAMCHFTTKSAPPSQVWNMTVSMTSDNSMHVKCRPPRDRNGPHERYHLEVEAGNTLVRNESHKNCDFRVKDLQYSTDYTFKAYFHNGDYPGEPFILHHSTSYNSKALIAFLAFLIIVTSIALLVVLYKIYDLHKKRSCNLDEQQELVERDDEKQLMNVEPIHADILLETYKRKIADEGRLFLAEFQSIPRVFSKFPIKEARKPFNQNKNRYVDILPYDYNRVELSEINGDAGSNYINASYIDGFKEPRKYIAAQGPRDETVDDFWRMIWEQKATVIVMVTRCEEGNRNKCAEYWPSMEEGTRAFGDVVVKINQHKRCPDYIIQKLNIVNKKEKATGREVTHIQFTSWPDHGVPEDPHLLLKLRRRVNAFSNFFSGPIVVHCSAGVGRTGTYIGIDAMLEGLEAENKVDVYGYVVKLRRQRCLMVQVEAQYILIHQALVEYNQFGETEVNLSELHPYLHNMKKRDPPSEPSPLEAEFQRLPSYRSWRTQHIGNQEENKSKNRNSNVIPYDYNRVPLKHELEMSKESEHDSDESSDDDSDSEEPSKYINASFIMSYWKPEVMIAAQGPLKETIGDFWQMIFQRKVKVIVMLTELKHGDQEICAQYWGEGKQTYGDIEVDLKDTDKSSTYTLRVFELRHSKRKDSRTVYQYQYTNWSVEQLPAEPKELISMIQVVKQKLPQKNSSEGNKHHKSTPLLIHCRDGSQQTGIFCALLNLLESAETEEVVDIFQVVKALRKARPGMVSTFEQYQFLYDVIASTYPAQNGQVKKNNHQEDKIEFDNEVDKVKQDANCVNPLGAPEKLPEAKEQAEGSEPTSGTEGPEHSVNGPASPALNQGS
Procedure: as §1

PTPH1 = PTPH1 (Homo sapiens, UniProt P26045); test: PTP inhibition assay (pNPP); format: biochemical; conditions: 1 μM inhibitor
Chain of PTPH1 (P26045 whole entry, species assumed): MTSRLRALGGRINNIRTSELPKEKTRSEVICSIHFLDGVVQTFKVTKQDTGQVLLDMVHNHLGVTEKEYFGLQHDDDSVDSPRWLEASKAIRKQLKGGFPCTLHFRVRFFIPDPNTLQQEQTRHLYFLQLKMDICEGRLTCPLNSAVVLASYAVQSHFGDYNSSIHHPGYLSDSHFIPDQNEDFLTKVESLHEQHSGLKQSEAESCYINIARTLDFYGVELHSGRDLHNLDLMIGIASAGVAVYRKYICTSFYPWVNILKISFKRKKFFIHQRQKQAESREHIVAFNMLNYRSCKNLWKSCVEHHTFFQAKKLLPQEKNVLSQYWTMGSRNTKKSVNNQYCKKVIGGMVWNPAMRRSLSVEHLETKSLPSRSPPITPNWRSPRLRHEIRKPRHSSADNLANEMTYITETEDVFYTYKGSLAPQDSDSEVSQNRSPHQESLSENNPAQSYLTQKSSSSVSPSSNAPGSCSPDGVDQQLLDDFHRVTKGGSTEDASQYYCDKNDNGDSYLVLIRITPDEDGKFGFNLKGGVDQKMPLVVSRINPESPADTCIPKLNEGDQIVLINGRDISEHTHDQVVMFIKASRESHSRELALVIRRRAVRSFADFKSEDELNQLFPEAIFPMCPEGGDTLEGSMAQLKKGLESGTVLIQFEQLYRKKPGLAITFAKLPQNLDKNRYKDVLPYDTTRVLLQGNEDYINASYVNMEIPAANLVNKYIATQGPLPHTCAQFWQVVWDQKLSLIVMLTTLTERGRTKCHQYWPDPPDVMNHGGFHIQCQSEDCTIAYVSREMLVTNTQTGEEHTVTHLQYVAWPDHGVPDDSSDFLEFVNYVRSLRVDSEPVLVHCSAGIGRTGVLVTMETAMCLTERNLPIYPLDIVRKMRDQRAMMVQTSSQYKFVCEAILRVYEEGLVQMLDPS
Procedure: as §1

SHP1 = SHP1 (Homo sapiens, UniProt P29350); test: PTP inhibition assay (pNPP); format: biochemical; conditions: 1 μM inhibitor; read-out: Inhibition of SHP-1
Chain of SHP1 (P29350 whole entry): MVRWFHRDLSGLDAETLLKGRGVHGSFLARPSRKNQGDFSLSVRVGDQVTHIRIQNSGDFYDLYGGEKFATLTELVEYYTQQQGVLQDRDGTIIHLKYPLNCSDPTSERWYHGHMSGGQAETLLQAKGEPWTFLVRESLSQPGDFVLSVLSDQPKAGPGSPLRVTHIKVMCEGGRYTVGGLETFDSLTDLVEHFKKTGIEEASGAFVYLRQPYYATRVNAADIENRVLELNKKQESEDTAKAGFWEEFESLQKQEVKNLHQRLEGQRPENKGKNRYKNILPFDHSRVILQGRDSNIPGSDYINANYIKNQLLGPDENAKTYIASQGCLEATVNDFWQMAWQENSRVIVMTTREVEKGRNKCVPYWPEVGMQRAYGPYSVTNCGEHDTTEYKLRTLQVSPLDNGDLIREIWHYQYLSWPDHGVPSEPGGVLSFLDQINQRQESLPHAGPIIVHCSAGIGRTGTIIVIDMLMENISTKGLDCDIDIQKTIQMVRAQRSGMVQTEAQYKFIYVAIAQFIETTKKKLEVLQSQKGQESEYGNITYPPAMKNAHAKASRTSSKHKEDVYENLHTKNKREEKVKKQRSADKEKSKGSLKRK
Procedure: as §1

[1] = Serum stability test (human serum); format: in vitro ADME; conditions: 25% human serum (supernatant after centrifugation), 24 h at 37° C., read-out: Degradation in human serum
Procedure: The stability tests were carried by modifying a previously reported procedure (Nguyen, L T et al. PLoS One 2010, 5, e12684). Diluted human serum (25%) was centrifuged at 15,000 rpm for 10 min, and the supernatant was collected. A peptide stock solution was diluted into the supernatant to a final concentration of 5 μM and incubated at 37° C. At various time points (0-24 h), 200-μL aliquots were withdrawn and mixed with 50 μL of 15% trichloroacetic acid and incubated at 4° C. overnight. The final mixture was centrifuged at 15,000 rpm for 10 min in a microcentrifuge, and the supernatant was analyzed by reversed-phase HPLC equipped with a C18 column. The amount of remaining peptide (%) was determined by integrating the area underneath the peptide peak (monitored at 214 nm) and comparing with that of the control reaction (no serum).

HeLa cells [2] = test: Western blot of PML protein level; format: cell-based, human; conditions: 5 μM
Procedure: FIGS. 38A, 38B, 38C, and 38D display cellular activity of peptide 37. (FIG. 38A) Cellular uptake of peptides 1, 37, and 46 (5 μM) by HeLa cells as analyzed by flow cytometry. MFI, mean fluorescence intensity; none, untreated cells (no peptide). (FIG. 38B) Anti-proliferative effect of peptides 37, 46, and 47 on HeLa cells as measured by MTT assay. (FIG. 38C) Western blots showing the effect of peptides 1, 37 and 47 on the protein level of PML in HeLa cells. β-Actin was used as loading control. (FIG. 38D) Quantification of western blot results from (FIG. 38C). Data reported were after background subtraction and represent the mean±SD from 3 independent experiments.
Finally, to ascertain that Pin1 is the molecular target of peptide 37 in vivo, the intracellular protein level of a well-established Pin1 substrate, […] (PML), was examined by western blot analysis. Pin1 negatively regulates the PML level in a phosphorylation-dependent manner and inhibition of Pin1 activity is expected to stabilize PML and increase its intracellular level. […] The effect was already significant at 0.2 μM inhibitor (1.8-fold increase in the PML level) and plateaued at ˜1 μM (3.3-fold increase). Again, bicyclic peptide 47 had no effect under the same conditions, while peptide 1 (the positive control, at 5 μM) increased the PML level by 3.1-fold.

Pin1 [3] = biological target: T1, Pin1 (Homo sapiens, UniProt Q13526, S16A/Y23A); test: Fluorescence anisotropy binding to Pin1
T1 construct: The full-length human S16A/Y23A mutant Pin1 was expressed and purified from E. coli; made in house
T1 sequence (Q13526 whole entry S16A/Y23A): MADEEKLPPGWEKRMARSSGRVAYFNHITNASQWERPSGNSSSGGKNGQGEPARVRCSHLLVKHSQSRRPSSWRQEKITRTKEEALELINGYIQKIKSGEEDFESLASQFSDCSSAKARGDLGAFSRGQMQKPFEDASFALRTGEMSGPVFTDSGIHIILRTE
Procedure: The gene coding for the catalytic domain of PTP1B (amino acids 1-321) was amplified by the polymerase chain reaction using PTP1B cDNA as template and oligonucleotides 5′-[…]-3′ and 5′-[…]-3′ as primers. […] Expression and purification of the ybbR-tagged PTP1B were carried out as previously described (Ren, L et al. Biochemistry 2011, 50, 2339-2356). […] The reaction mixture was passed through a G-25 fast-desalting column equilibrated in 30 mM HEPES, pH 7.4, 150 mM NaCl to remove any free dye molecules. The full-length human S16A/Y23A mutant Pin1 was expressed and purified from E. coli as previously described (Liu, T et al. J. Med. Chem. 2010, 53, 2494-2501).
FA experiments were carried out by incubating 100 nM FITC-labeled peptide with varying concentrations of protein in 20 mM HEPES (pH 7.4), 150 mM NaCl, 2 mM magnesium acetate, and 0.1% bovine serum albumin (BSA) for 2 h at room temperature. The FA values were measured on a Molecular Devices Spectramax M5 plate reader, with excitation and emission wavelengths at 485 and 525 nm, respectively. Equilibrium dissociation constants (KD) were determined by plotting the FA values as a function of protein concentration and fitting the curve to the following equation:
(§2) [formula] where Y is the FA value at a given protein concentration x, L is the peptide concentration, Qb/Qf is the correction factor for fluorophore-protein interaction, Amax is the maximum FA value when all of the peptides are bound to protein, while Amin is the minimum FA value when all of the peptides are free. FA competition assay was performed by incubating 100 nM FITC-labeled Pin1 inhibitor 5 with 1 μM Pin1, followed by the addition of 0-5 μM unlabeled inhibitor. The FA values were measured similarly on a pate reader. IC50 values were obtained by plotting the FA values against the competitor concentration and curve fitting using the four-parameter dose-response inhibition equation (Prism 6, GraphPad).

HeLa cells [4] = test: Cellular uptake by flow cytometry; format: cell-based, human; conditions: 5 μM FITC-labeled peptide, 2 h
Procedure: The cellular uptake efficiency of peptide 37, peptide 1, and a previously reported membrane-impermeable monocyclic Pin1 inhibitor (Table 18, peptide 46) was assessed by incubating HeLa cells with the FITC-labeled peptides (5 μM) for 2 h and quantifying the total intracellular fluorescence by flow cytometry analysis. […] By contrast, cells treated with peptides 1 and 37 gave MFI values of 2562 and 8792, respectively. Thus, peptide 37 is internalized by HeLa cells ˜4-fold more efficiently than peptide 1. Presumably, the negative charged phosphate group of peptide 1 interacted electrostatically with the positively charged CPP motif and reduced the cellular uptake efficiency of the latter.

Pin1 [5] = biological target: T1, Pin1; test: FA competition with FITC-labeled inhibitor 5; format: binding; conditions: 0.1 μM labeled inhibitor 5, 1 μM Pin1
Procedure: FIGS. 32A and 32B display the competition for binding to Pin1 by inhibitors 5 and 7. Each reaction contained 0.1 μM FITC-labeled inhibitor 5, 1 μM Pin1, and 0-5 μM unlabeled inhibitor 5 […] or inhibitor 7 (FIG. 32B) and the FA value was measured and plotted against the competitor concentration.
as §2

HeLa cells [6] = test: MTT proliferation assay with Pin1 inhibitors; format: cell-based, human; conditions: 3-day treatment at 20 μM
Procedure: HeLa cells (100 μL/each well, 5×10^4 cells/mL) were seeded in a 96-well culture plate and allowed to grow overnight in DMEM supplemented with 10% FBS. […] After that, 10 μL of a MTT stock solution (5 mg/mL) was added into each well. The plate was incubated at 37° C. for 4 h and 100 μL of SDS-HCl solubilizing solution was added into each well, followed by thorough mixing. The plate was incubated at 37° C. overnight and the absorbance of the formazan product was measured at 570 nm on a Molecular Devices Spectramax M5 plate reader. Each experiment was performed in triplicates and the cells untreated with peptide were used as control.

HeLa cells [7] = conditions: read-out: IC50 of HeLa cell growth; MTT
Text: The effect of peptide 37 on the growth of HeLa cells was examined by using the MTT cell viability assay.

A549 lung cancer cells = test: Live-cell confocal microscopy of FITC-labeled PTP1B inhibitors; format: cell-based, human; conditions: 5 μM FITC-labeled inhibitor, 2 h
Procedure: Approximately 5×10^4 A549 cells were seeded in 35-mm glass-bottomed microwell dish (MatTek) containing 1 mL of media and cultured for one day. A549 cells were gently washed with DPBS once and treated with the FITC-labeled PTP1B inhibitors (5 μM), dextran^Rho (1 mg mL^−1) in growth media for 2 h at 37° C. in the presence of 5% CO2. The peptide-containing media was removed and the cells were washed with DPBS three times and incubated for 10 min in 1 mL of DPBS containing 5 μM DRAQS. The cells were again washed with DPBS twice. Then the cells were imaged on a Visitech Infinity 3 Hawk 2D-array live cell imaging confocal microscope (with a 60× oil immersion lens) at 37° C. in the presence of 5% CO2. Live-cell confocal microscopic imaging of HEK293 cells after treatment with FITC-labeled Pin1 inhibitors were similarly conducted.

PTP1B = biological target: T2, PTP1B (Homo sapiens, UniProt P18031); test: PTP inhibition assay (pNPP); format: biochemical; conditions: monocyclic peptide inhibitors
T2 construct: The gene coding for the catalytic domain of PTP1B (amino acids 1-321) was amplified; made in house; host or cells: prokaryotic vector pET-22b(+)-ybbR
T2 sequence (P18031 1-321): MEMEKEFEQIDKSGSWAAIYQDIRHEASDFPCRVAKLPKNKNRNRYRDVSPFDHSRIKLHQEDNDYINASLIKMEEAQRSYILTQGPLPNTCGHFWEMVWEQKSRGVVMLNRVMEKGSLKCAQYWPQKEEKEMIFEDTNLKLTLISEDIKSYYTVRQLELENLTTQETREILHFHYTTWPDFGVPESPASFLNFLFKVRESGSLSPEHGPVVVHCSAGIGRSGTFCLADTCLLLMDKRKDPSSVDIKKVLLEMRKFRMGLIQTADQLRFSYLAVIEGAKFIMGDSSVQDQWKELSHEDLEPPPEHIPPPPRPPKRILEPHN
Procedure: as §1
[formula] where V0 is the enzymatic reaction rate in the absence of inhibitor. […] The reaction rate (V) was plotted against the pNPP concentration ([S]) and fitted against the equation
[formula] to obtain the Michaelis constant K. The Ki value was obtained by plotting the K values against the inhibitor concentration [I] and fitted to equation
[formula] where K0 is the Michaelis constant in the absence of inhibitor ([I]=0).

**Q.** What does the source list for CC(C)[C@H]1NC(=O)[C@H](CO)NC(=O)c2cc3cc(c2)C(=O)NC[C@H](NC(=O)[C@H](Cc2c[nH]cn2)NC(=O)[C@H](Cc2ccc(C(F)(F)P(=O)(O)O)cc2)NC(=O)[C@@H]2CCCN2C1=O)C(=O)N[C@@H](CCCNC(=N)N)C(=O)N[C@@H](CCCNC(=N)N)C(=O)N[C@@H](CCCNC(=N)N)C(=O)N[C@@H](CCCNC(=N)N)C(=O)N[C@@H](Cc1ccc2ccccc2c1)C(=O)N[C@@H](Cc1ccccc1)C(=O)N[C@H](C(=O)N[C@@H](CCCCN)C(N)=O)CNC3=O [Bicyclic Inhibitor 4] (S[dV]P[F2Pmp]H[Dap]RRRR[2Nal]F[Dap]K-NH2; linker N-6-13 via Trimesoyl; C-terminus assumed)?
**A.** inhibition at 1 µM (HePTP): < 10%; inhibition at 1 µM (PTPRO): < 10%; inhibition at 1 µM (PTPRC): < 10%; inhibition at 1 µM (PTPH1): < 10%; inhibition at 1 µM (SHP1): < 10%; metabolised at 24 h, 5 μM [1]: ~10%

**Q.** For C[C@@H]1NC(=O)[C@H](CCCNC(=N)N)NC(=O)[C@H](Cc2ccc3ccccc3c2)NC(=O)[C@@H]2CCCCN2C(=O)[C@@H]([C@H](C)OP(=O)(O)O)NC(=O)CN(C)C(=O)[C@@H](C)NC(=O)c2cc3cc(c2)C(=O)NC[C@H](NC(=O)[C@@H](C)NC1=O)C(=O)N[C@@H](Cc1ccccc1)C(=O)N[C@@H](Cc1ccc2ccccc2c1)C(=O)N[C@@H](CCCNC(=N)N)C(=O)N[C@@H](CCCNC(=N)N)C(=O)N[C@@H](CCCNC(=N)N)C(=O)N[C@@H](CCCNC(=N)N)C(=O)N[C@H](C(=O)N[C@@H](CCCCN)C(N)=O)CNC3=O [Peptide 1, bicyclo[Tm-(D-Ala-Sar-D-pThr-Pip-Nal-Arg-Ala-D-Ala)-Dap-(Phe-Nal-Arg-Arg-Arg-Arg-Dap)]-Lys] ([dA][Sar][d(pT)][Pip][2Nal]RA[dA][Dap]F[2Nal]RRRR[Dap]K-NH2; linker N-9-16 via Trimesoyl), which “Increase in the PML level” value (HeLa cells [2]) is on record?
**A.** 3.1 fold

**Q.** And the “Improvement of inhibitor potency vs peptide 6” value (Pin1 [3])?
**A.** ~2 fold

**Q.** What about the Kd (Pin1 [3]; FITC-labeled peptide, FA analysis) of the same compound?
**A.** 72 nM

**Q.** What about the “Mean fluorescence intensity (MFI)” value (HeLa cells [4]) of the same compound?
**A.** 2562

**Q.** And the “Competition with FITC-labeled inhibitor 5 for binding to Pin1” value (Pin1 [5])?
**A.** competed

**Q.** And the “Inhibition of cell growth” value (HeLa cells [6])?
**A.** 45%

**Q.** And the IC50 (HeLa cells [7])?
**A.** 1800 nM

**Q.** What does the source list for CC(C)[C@H]1NC(=O)[C@H](CO)NC(=O)[C@H](CCC(N)=O)NC(=O)[C@H](Cc2ccccc2)NC(=O)[C@H](Cc2ccc3ccccc3c2)NC(=O)[C@H](CCCNC(=N)N)NC(=O)[C@H](CCCNC(=N)N)NC(=O)[C@H](CCCNC(=N)N)NC(=O)[C@H](CCCNC(=N)N)NC(=O)[C@H](Cc2c[nH]cn2)NC(=O)[C@H](Cc2ccc(C(F)(F)P(=O)(O)O)cc2)NC(=O)[C@@H]2CCCN2C1=O [Monocyclic Inhibitor 2, cyclo(Ser-D-Val-Pro-F2Pmp-His-Arg-Arg-Arg-Arg-Nal-Phe-Gln)] (cyclo(S[dV]P[F2Pmp]HRRRR[2Nal]FQ))?
**A.** Cellular uptake (confocal) (A549 lung cancer cells): poor cellular uptake; IC50 (PTP1B): ~30 nM

Source: patent publication US10815276B2, “Cell penetrating peptides and methods of making and using thereof” (Entrada Therapeutics, Inc., priority 2014, dated 2020)
